Where “and” joins values, the source holds several entries; their conditions need not be identical. Identical values can stand only once.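 Protocol summary: plate cells (96-well), add compound at 5 concentrations, incubate 48 h, interpolate endpoints linearly. GI50 is the concentration that inhibits growth by half. TGI: concentration producing complete growth inhibition.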
Tests used:
Assay in all cases: NCI anticancer screen, dose series, 48 h
[1] = test system: BT-549 breast
[2] = test system: OVCAR-3 ovarian
[3] = test system: MCF7 breast
[4] = test system: MDA-MB-435
[5] = test system: CAKI-1 renal
[6] = test system: SF-539 CNS
[7] = test system: TK-10 renal
[8] = test system: HOP-92 NSCLC
[9] = test system: EKVX NSCLC
[10] = test system: SF-295 CNS
[11] = test system: U251 CNS
[12] = test system: SNB-75 CNS
[13] = test system: COLO 205 colon
[14] = test system: DU-145 prostate
[15] = test system: SR leukemia
[16] = test system: LOX IMVI melanoma
[17] = test system: NCI-H23 lung
[18] = test system: NCI-H226 lung
[19] = test system: M14 melanoma
[20] = test system: UO-31 renal
[21] = test system: OVCAR-8 ovarian
[22] = test system: OVCAR-4 ovarian
[23] = test system: IGROV1 ovarian
[24] = test system: K-562 leukemia
[25] = test system: HS 578T breast
[26] = test system: HT29 colon
[27] = test system: PC-3 prostate
[28] = test system: SK-MEL-28 melanoma
[29] = test system: SK-MEL-5 melanoma

CN(C)C/C=C/C(=O)Nc1cc2c(Nc3ccc(F)c(Cl)c3)ncnc2cc1O[C@H]1CCOC1
GI50 [1]: 2280 nM and 2180 nM
TGI [1]: 9600 nM and > 10000 nM
GI50 [2]: 232 nM and 229 nM
TGI [2]: 2540 nM and > 4930 nM
GI50 [3]: 2230 nM and 2120 nM
TGI [3]: 9140 nM and > 10000 nM
GI50 [4]: 603 nM and 882 nM
TGI [4]: 7370 nM and > 5680 nM
GI50 [5]: 40.7 nM and 208 nM
TGI [5]: 8390 nM and > 10000 nM
GI50 [6]: 1500 nM and 2590 nM
TGI [6]: 4680 nM and 9710 nM
GI50 [7]: < 10 nM and 1.36 nM
GI50 [8]: 227 nM
TGI [8]: 4440 nM
GI50 [9]: < 10 nM and 3 nM
TGI [9]: 11300 nM and > 10000 nM
GI50 [10]: 4930 nM and 3320 nM
TGI [10]: 20900 nM and > 10000 nM
GI50 [11]: 580 nM and 1350 nM
TGI [11]: 2960 nM and > 10000 nM
GI50 [12]: 1480 nM and 983 nM
TGI [12]: 10700 nM and 8330 nM
GI50 [13]: 998 nM and 887 nM
TGI [13]: 3090 nM and > 5590 nM
GI50 [14]: 884 nM and 244 nM
TGI [14]: 12700 nM and > 10000 nM
GI50 [15]: 3460 nM and 1260 nM
TGI [15]: 13200 nM and 6500 nM
GI50 [16]: 1020 nM and 1380 nM
TGI [16]: 3620 nM and > 5510 nM
GI50 [17]: 1960 nM and 2490 nM
TGI [17]: 8660 nM and > 10000 nM
GI50 [18]: 2040 nM and 5250 nM
TGI [18]: 8450 nM and > 10000 nM
GI50 [19]: 1390 nM and 1420 nM
TGI [19]: 2990 nM and 6610 nM
GI50 [20]: 762 nM and 322 nM
TGI [20]: 16400 nM and > 10000 nM
GI50 [21]: 1360 nM and 1880 nM
TGI [21]: 5370 nM and > 6850 nM
GI50 [22]: 915 nM and 1270 nM
TGI [22]: 12300 nM and > 10000 nM
TGI [23]: 12500 nM and 2350 nM
GI50 [24]: 3170 nM and 1970 nM
TGI [24]: 14100 nM and > 10000 nM
GI50 [25]: 2400 nM and 1620 nM
TGI [25]: 13300 nM and > 8160 nM
GI50 [26]: 815 nM and 756 nM
TGI [26]: 3490 nM and > 10000 nM
GI50 [27]: 3190 nM and 3260 nM
TGI [27]: 12800 nM and > 10000 nM
GI50 [28]: 2290 nM and 2450 nM
TGI [28]: 6800 nM and > 10000 nM
GI50 [29]: 1310 nM and 2110 nM
TGI [29]: 2750 nM and > 5590 nM

Source: PubChem BioAssay (NCI)
